Laboratory results taken from BindingDB's records for doi:10.1021/bi050490d (Case Western Reserve University, 2005).

Biological target: Kappa-type opioid receptor (Homo sapiens, UniProt P41145)
Sequence (P41145 whole entry): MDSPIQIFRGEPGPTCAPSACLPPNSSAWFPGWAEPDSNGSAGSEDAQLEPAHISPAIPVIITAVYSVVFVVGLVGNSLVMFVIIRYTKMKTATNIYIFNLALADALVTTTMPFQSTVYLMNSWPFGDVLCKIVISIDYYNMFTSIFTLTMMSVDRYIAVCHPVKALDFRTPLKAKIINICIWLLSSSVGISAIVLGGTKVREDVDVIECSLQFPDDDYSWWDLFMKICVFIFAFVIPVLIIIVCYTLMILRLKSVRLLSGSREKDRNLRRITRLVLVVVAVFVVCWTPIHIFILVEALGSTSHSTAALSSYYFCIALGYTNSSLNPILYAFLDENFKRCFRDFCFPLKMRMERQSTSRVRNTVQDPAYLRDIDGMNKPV

CC[C@H](C)[C@H](NC(=O)[C@H](CCCNC(=N)N)NC(=O)[C@H](CCCNC(=N)N)NC(=O)[C@H](CC(C)C)NC(=O)[C@H](Cc1ccccc1)NC(=O)CNC(=O)CNC(=O)[C@@H](N)Cc1ccc(O)cc1)C(=O)N[C@@H](CCCNC(=N)N)C(=O)N1CCC[C@H]1C(=O)N[C@@H](CCCCN)C(=O)N[C@@H](CC(C)C)C(=O)N[C@@H](CCCCN)C(=O)O [Dynorphin A (1-13)]
Ki: 343 nM
